{"source": "paper PMC6792352", "about": "“Limited Chemical Structural Diversity Found to Modulate Thyroid Hormone Receptor in the Tox21 Chemical Library” (Environmental Health Perspectives, 2019)", "key": {"[1]": {"system": "thyroid hormone receptor (endogenous TRα and TRβ)", "assay": "cells", "design": "species or system GH3-TRE-Luc (rat pituitary); GH3-TRE-Luc luciferase reporter, antagonist mode against 1 nM T3, loss of signal, qHTS", "conditions": "24 h, antagonist mode, 1 nM T3, read-out: AC50 (uM) modified / 1000"}, "[2]": {"system": "thyroid hormone receptor (endogenous TRα and TRβ)", "assay": "cells", "design": "species or system GH3-TRE-Luc (rat pituitary); GH3-TRE-Luc luciferase reporter transactivation, agonist mode, qHTS; RXR ligands can also activate indirectly", "conditions": "24 h, read-out: TR_LUC_GH3_Agonist_AC50 (uM)"}, "in vitro [3]": {"assay": "in vitro", "design": "species or system GH3-TRE-Luc (rat pituitary); CellTiter-Fluor viability run in parallel with antagonist mode (1 nM T3), loss of viability", "conditions": "rat, gh3-tre-luc cells, 1 nM T3 present"}, "[4]": {"assay": "Global cytotoxicity: eighteen Tox21 cell viability assays", "type": "cell-based", "conditions": "median over 18 Tox21 cell viability assays (Judson et al. 2016, invitrodb_v2); read-out: Global cytotoxicity AC50 median"}, "in vitro [5]": {"assay": "in vitro", "conditions": "rat, gh3-tre-luc cells, AC50 (uM) modified / 1000"}, "[6]": {"system": "thyroid hormone receptor (endogenous TRα and TRβ)", "assay": "GH3-TRE-Ag-Followup confirmation (TOX21_TR_LUC_GH3_Agonist_Followup, aeid 2226)", "type": "cell-based, rat", "conditions": "for AC50: read-out: GH3-TRE-Ag-Followup AC50"}, "[7]": {"system": "thyroid hormone receptor (TR)", "assay": "Classification of TR actives across characterization assays (TR-Ag / RXR-Ag; TR model binary)", "design": "key to Categorization Code: FP, false positive", "how_it_was_run": "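GH3-TRE qHTS agonist, antagonist and viability modes over 8,305 compounds; 84 candidates rescreened in GH3-TRE-Ag, TRβ- and RXRα-UAS-bla HEK 293T one-hybrid assays, HEK293T viability, and TRα/TRβ coactivator recruitment. Actives classified binary after removing pharmaceuticals.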"}, "in vitro [8]": {"assay": "in vitro", "conditions": "rat"}, "estrogen receptor": {"system": "estrogen receptor", "design": "method as in Judson et al. 2015", "conditions": "model values ≥0.1 define actives; ref Judson et al. 2015; cited from earlier work"}, "[9]": {"target": "T1, TRα ligand-binding domain (Homo sapiens, UniProt P10827)", "T1 construct": "the receptor LBDs expressed as glutathione S-transferase (GST) fusion proteins; purchased", "T1 sequence (P10827 163-410 isoform P10827-2 limits assumed, other chains not shown)": "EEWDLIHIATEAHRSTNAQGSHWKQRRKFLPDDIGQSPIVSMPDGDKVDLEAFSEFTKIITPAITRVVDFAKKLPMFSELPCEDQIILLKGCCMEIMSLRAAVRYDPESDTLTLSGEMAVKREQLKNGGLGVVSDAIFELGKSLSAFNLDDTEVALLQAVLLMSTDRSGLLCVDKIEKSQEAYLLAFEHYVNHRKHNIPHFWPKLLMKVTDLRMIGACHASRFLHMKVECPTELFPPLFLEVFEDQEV", "assay": "TRa-coa LanthaScreen TR-FRET coactivator (SRC-2 peptide) recruitment, agonist (TOX21_TRA_COA_Agonist_Followup_ratio, aeid 2230)", "type": "biochemical"}, "[10]": {"system": "Tox21 cell viability assays (different cell types)", "assay": "Global cytotoxicity: eighteen Tox21 cell viability assays", "type": "cell-based"}, "[11]": {"target": "T2, human TRβ ligand-binding domain (Homo sapiens, UniProt P10828)", "T2 sequence (P10828 217-461 limits assumed)": "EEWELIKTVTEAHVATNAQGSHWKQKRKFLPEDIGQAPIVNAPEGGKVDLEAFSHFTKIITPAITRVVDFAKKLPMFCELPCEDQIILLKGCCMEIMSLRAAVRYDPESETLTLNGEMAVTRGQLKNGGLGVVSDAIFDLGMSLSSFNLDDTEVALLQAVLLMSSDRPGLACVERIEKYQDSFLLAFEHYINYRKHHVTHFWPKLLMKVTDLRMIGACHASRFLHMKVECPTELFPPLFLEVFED", "assay": "TRb-bla agonist mammalian one-hybrid beta-lactamase assay (TOX21_TRB_BLA_Agonist_Followup_ratio, aeid 2236)", "type": "cell-based", "design": "host or cells: GeneBLAzer UAS-bla HEK 293T"}, "human RXRα": {"target": "T3, human RXRα (Homo sapiens, UniProt P19793)", "T3 construct": "host or cells: GeneBLAzer UAS-bla HEK 293T", "T3 sequence (P19793 227-458 limits assumed)": "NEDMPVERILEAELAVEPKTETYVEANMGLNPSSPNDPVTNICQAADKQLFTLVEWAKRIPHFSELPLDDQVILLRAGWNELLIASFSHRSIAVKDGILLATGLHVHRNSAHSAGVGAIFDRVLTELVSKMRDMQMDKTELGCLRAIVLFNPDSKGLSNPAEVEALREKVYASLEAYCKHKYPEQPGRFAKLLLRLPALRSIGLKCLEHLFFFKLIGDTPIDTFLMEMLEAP", "assay": "RXRa-bla-Ag mammalian one-hybrid beta-lactamase assay (TOX21_TR_RXR_BLA_Agonist_Followup_ratio, aeid 2253)", "type": "cell-based"}, "GH3-TRE-Luc cell line [12]": {"system": "GH3-TRE-Luc cell line", "assay": "GH3-TRE-Via cell viability, CellTiter-Fluor (TOX21_TR_LUC_GH3_Antagonist_viability, aeid 805)", "conditions": "Rattus norvegicus, read-out: TR_LUC_GH3_Antagonist_viability AC50 (uM)"}, "[13]": {"system": "thyroid hormone receptor (endogenous TRα and TRβ)", "assay": "GH3-TRE-Ag primary qHTS, luciferase reporter, agonist mode (TOX21_TR_LUC_GH3_Agonist, aeid 803)", "type": "cell-based, rat"}, "[14]": {"target": "T2, human TRβ ligand-binding domain", "assay": "TRb-coa LanthaScreen TR-FRET coactivator (SRC-2 peptide) recruitment, agonist (TOX21_TRB_COA_Agonist_Followup_ratio, aeid 2244)", "type": "biochemical", "design": "host or cells: GeneBLAzer UAS-bla HEK 293T"}, "GH3-TRE-Luc cell line [15]": {"system": "GH3-TRE-Luc cell line", "conditions": "rat, 24 h"}, "[16]": {"conditions": "candidate chemicals in Tables 2 and 3 define actives"}}, "data": [{"smiles": "CCOP(=S)(OCC)SCCl", "note": "[Chlormephos]", "values": [{"measurement": "AC50", "setting": "[1]; Tox21_110001=Tox21_300825", "result": "> 90", "unit": "µM"}, {"measurement": "AC50", "setting": "[2]", "result": "> 90", "unit": "µM"}, {"measurement": "CC50 at 24 h", "setting": "in vitro [3]; AC50 (uM) modified / 1000, Tox21_110001=Tox21_300825, viability", "result": "> 90", "unit": "µM"}]}, {"smiles": "[CH3][Sn]([Cl])([Cl])[Cl]", "note": "[Trichloromethylstannane]", "values": [{"measurement": "CC50 at 24 h", "setting": "in vitro [3]; AC50 (uM) modified / 1000, Tox21_110001=Tox21_202322, viability", "result": "> 90", "unit": "µM"}]}, {"smiles": "N[C@@H](Cc1ccc(Oc2cc(I)c(O)c(I)c2)c(I)c1)C(=O)O", "note": "[3,3ʹ,5ʹ-Triiodo-L-thyronine]", "values": [{"measurement": "AC50", "setting": "[4]", "result": "> 92", "unit": "µM"}, {"measurement": "CC50 at 24 h", "setting": "in vitro [5]", "result": "> 50", "unit": "µM"}, {"measurement": "AC50", "setting": "[6]; confirmation, agonist mode", "result": 0.537, "unit": "µM"}, {"measurement": "Classification", "setting": "[7]; TR-Ag = TR agonist, RXR-Ag = RXR agonist", "result": "TR-Ag"}, {"measurement": "AC50", "setting": "[2]", "result": 0.218, "unit": "µM"}, {"measurement": "AC50", "setting": "in vitro [8]", "result": "> 92", "unit": "µM"}]}, {"smiles": "C=C1CCC2CC1C2(C)C", "note": "(single isomer, unassigned; (-)) [(-)-beta-Pinene]", "values": [{"measurement": "ER_Model_AUC_Agonist", "setting": "estrogen receptor", "result": 0}, {"measurement": "ER_Model_AUC_Antagonist", "setting": "estrogen receptor", "result": 0}, {"measurement": "TR_Model_Binary_Agonist", "setting": "[7]; [16]", "result": 0}, {"measurement": "TR_Model_Binary_Antagonist", "setting": "[7]; [16]", "result": 0}]}, {"smiles": "C1=CCC=C1", "note": "[1,3-Cyclopentadiene]", "values": [{"measurement": "AC50", "setting": "[1]; Tox21_110001=Tox21_302134", "result": "> 90", "unit": "µM"}, {"measurement": "AC50", "setting": "[2]", "result": "> 90", "unit": "µM"}, {"measurement": "CC50 at 24 h", "setting": "in vitro [3]; AC50 (uM) modified / 1000, Tox21_110001=Tox21_302134, viability", "result": "> 90", "unit": "µM"}]}, {"smiles": "C[C@]12CC[C@@H]3c4ccc(OC(=O)N(CCCl)CCCl)cc4CC[C@H]3[C@@H]1CC[C@@H]2OP(=O)(O)O", "note": "[Estramustine phosphate sodium]", "values": [{"measurement": "AC50", "setting": "[1]; Tox21_110001=Tox21_113375", "result": "> 50", "unit": "µM"}]}, {"smiles": "c1csc(-c2ccc(-c3cccs3)s2)c1", "note": "[alpha-Terthiophene]", "values": [{"measurement": "AC50", "setting": "[9]; agonist, read-out: TRa-coa AC50", "result": "> 92", "unit": "µM"}, {"measurement": "TRa-coa hitc", "setting": "[9]; hit call from tcpl, agonist", "result": 0}, {"measurement": "Emax", "setting": "[9]; read-out: EMax (% of Control) tra-coa-agonist-followup-1", "result": -0.547, "unit": "%"}, {"measurement": "GLOBAL CYTOTOXICITY cytotox.median", "setting": "[10]", "result": ">92"}, {"measurement": "GLOBAL CYTOTOXICITY cytotox.number_Active", "setting": "[10]", "result": 0}, {"measurement": "AC50", "setting": "[11]; agonist, read-out: TRb-bla AC50", "result": "> 92", "unit": "µM"}, {"measurement": "TRb-bla hitc", "setting": "[11]; hit call from tcpl, agonist", "result": 0}, {"measurement": "Emax", "setting": "[11]; read-out: EMax (% of Control) trb-bla-agonist-followup-1", "result": 25.8, "unit": "%"}, {"measurement": "EMax (% of Control) gh3-tre-agonist-followup-1_agonist", "setting": "[6]", "result": "7.5 % of Control"}, {"measurement": "GH3-TRE-Ag-Followup hitc", "setting": "[6]; hit call from tcpl", "result": 0}, {"measurement": "AC50", "setting": "[6]", "result": "> 92", "unit": "µM"}, {"measurement": "Categorization Code", "setting": "[7]; TR agonist characterization", "result": "FP"}, {"measurement": "tr-followup-rxr-bla-agonist-1 hitc", "setting": "human RXRα; hit call from tcpl", "result": 1}, {"measurement": "Emax", "setting": "human RXRα; read-out: EMax (% of Control) tr-followup-rxr-bla-agonist-1", "result": 65.3, "unit": "%"}, {"measurement": "AC50", "setting": "human RXRα; read-out: tr-followup-rxr-bla-agonist-1 AC50", "result": 0.728, "unit": "µM"}, {"measurement": "AC50", "setting": "[2]", "result": 80.3, "unit": "µM"}, {"measurement": "AC50", "setting": "GH3-TRE-Luc cell line [12]", "result": "> 92", "unit": "µM"}, {"measurement": "EMax (% of Control) gh3-tre-agonist", "setting": "[13]", "result": "20.8 % of Control"}, {"measurement": "GH3-TRE-Ag AC50 hitc", "setting": "[13]; hit call from tcpl", "result": 1}, {"measurement": "AC50", "setting": "[14]; agonist, read-out: TRb-coa AC50", "result": "> 92", "unit": "µM"}, {"measurement": "TRb-coa hitc", "setting": "[14]; hit call from tcpl, agonist", "result": 0}, {"measurement": "Emax", "setting": "[14]; read-out: EMax (% of Control) trb-coa-agonist-followup-1", "result": -0.0945, "unit": "%"}, {"measurement": "TR_LUC_GH3_Antagonist_viability hitc", "setting": "GH3-TRE-Luc cell line [15]", "result": 0}]}, {"smiles": "CCOP(=O)(CN(CCO)CCO)OCC", "note": "[Diethyl((diethanolamino)methyl)phosphonate]", "values": [{"measurement": "AC50", "setting": "[1]; Tox21_110001=Tox21_301894", "result": "> 90", "unit": "µM"}, {"measurement": "AC50", "setting": "[2]", "result": "> 90", "unit": "µM"}, {"measurement": "CC50 at 24 h", "setting": "in vitro [3]; AC50 (uM) modified / 1000, Tox21_110001=Tox21_301894, viability", "result": "> 90", "unit": "µM"}]}]}
